Results from the supplement of paper PMC10307832.

Assays:
Assay in all cases: relative viability (nuclei count vs DMSO), 5 days (fraction); higher = more cells survive
[1] = compound: Cc1ccc2nc(NCCN)c3ncc(C)n3c2c1 + CS(=O)(=O)N1CCN(Cc2cc3nc(-c4cccc5[nH]ncc45)nc(N4CCOCC4)c3s2)CC1 [Pictilisib] (partner 1 µM)
Summary of the method: (§1)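 Each reported value is a median over duplicate plates. It expresses relative viability: treated-well nuclei count divided by vehicle-well nuclei count. Lung cancer cell lines in 1536-well plates were dosed by pin tool a day after seeding, alone with one drug or with a fixed anchor-drug dose plus five library-drug doses (not always all listed) in √10 steps, and nuclei were counted after 5 days.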

Salubrinal + Tozasertib = compound: O=C(/C=C/c1ccccc1)NC(NC(=S)Nc1cccc2cccnc12)C(Cl)(Cl)Cl [Salubrinal] + Cc1cc(Nc2cc(N3CCN(C)CC3)nc(Sc3ccc(NC(=O)C4CC4)cc3)n2)n[nH]1 [Tozasertib] (partner 0.1 µM)
Summary of the method: as §1

[2] = compound: Cc1ccc2nc(NCCN)c3ncc(C)n3c2c1 + COc1cc2c(Oc3ccc(NC(=O)C4(C(=O)Nc5ccc(F)cc5)CC4)cc3F)ccnc2cc1OCCCN1CCOCC1 [Foretinib] (partner 0.25 µM)
Summary of the method: as §1

Salubrinal + Olaparib = compound: O=C(/C=C/c1ccccc1)NC(NC(=S)Nc1cccc2cccnc12)C(Cl)(Cl)Cl [Salubrinal] + O=C(c1cc(Cc2n[nH]c(=O)c3ccccc23)ccc1F)N1CCN(C(=O)C2CC2)CC1 [Olaparib] (partner 8 µM)
Summary of the method: as §1

| Cell Line | relative viability ([1]; first compound 0.04 µM) | relative viability ([1]; first compound 0.1265 µM) | relative viability ([1]; first compound 0.4 µM) | relative viability ([1]; first compound 1.265 µM) | relative viability ([1]; first compound 4 µM) | relative viability (Salubrinal + Tozasertib; first compound 0.08 µM) | relative viability (Salubrinal + Tozasertib; first compound 0.253 µM) | relative viability (Salubrinal + Tozasertib; first compound 0.8 µM) | relative viability (Salubrinal + Tozasertib; first compound 2.53 µM) | relative viability (Salubrinal + Tozasertib; first compound 8 µM) | relative viability ([2]; first compound 0.04 µM) | relative viability ([2]; first compound 0.1265 µM) | relative viability ([2]; first compound 0.4 µM) | relative viability ([2]; first compound 1.265 µM) | relative viability ([2]; first compound 4 µM) | relative viability (Salubrinal + Olaparib; first compound 0.08 µM) | relative viability (Salubrinal + Olaparib; first compound 0.253 µM) | relative viability (Salubrinal + Olaparib; first compound 0.8 µM) | relative viability (Salubrinal + Olaparib; first compound 2.53 µM) | relative viability (Salubrinal + Olaparib; first compound 8 µM) |
| --- | --- | --- | --- | --- | --- | --- | --- | --- | --- | --- | --- | --- | --- | --- | --- | --- | --- | --- | --- | --- |
| NCI-H1975 | 0.317 | 0.281 | 0.245 | 0.261 | 0.242 | 0.989 | 0.621 | 0.785 | 0.517 | 0.186 | 0.992 | 0.981 | 0.895 | 0.947 | 0.882 | 0.926 | 0.59 | 0.777 | 0.769 | 0.613 |
| NCI-H1993 | 0.804 | 0.648 | 0.693 | 0.765 | 0.771 | 0.653 | 0.577 | 0.597 | 0.674 | 0.649 | 0.904 | 0.685 | 0.748 | 0.626 | 0.698 | 0.867 | 0.932 | 0.561 | – | 1.47 |
| NCI-H2009 | 0.866 | 0.767 | 0.841 | 0.762 | 0.765 | 0.762 | 0.733 | 0.774 | 0.718 | 0.637 | 1.22 | 1.23 | 1.24 | 1.23 | 1.04 | 0.758 | 0.581 | 0.547 | 0.685 | 0.656 |
| NCI-H2023 | 0.222 | 0.242 | 0.238 | 0.288 | 0.201 | 0.323 | 0.286 | 0.323 | 0.236 | 0.182 | 0.932 | 0.522 | 1.01 | 0.803 | 0.708 | 0.472 | 0.428 | 0.435 | 0.373 | 0.524 |
| NCI-H2085 | 0.515 | 0.436 | 0.429 | 0.551 | 0.422 | 0.96 | 0.776 | 0.854 | 0.588 | 0.77 | 0.903 | 1.14 | 0.941 | 0.929 | 0.946 | 0.804 | 0.742 | 0.765 | 0.76 | 0.745 |
| NCI-H2087 | 1.05 | 0.824 | 0.816 | 0.981 | 0.984 | 0.299 | 0.212 | 0.295 | 0.229 | 0.195 | 1.13 | 1.08 | 1.11 | 1.05 | 1.09 | 0.476 | 0.493 | 0.784 | 0.508 | 0.584 |
| NCI-H2126 | 0.512 | 0.512 | 0.489 | 0.453 | 0.456 | 0.979 | 0.801 | 0.968 | 0.827 | 0.666 | 1.41 | 1.07 | 1.18 | 1.2 | 1.14 | 1.01 | 0.754 | 0.941 | 0.88 | 0.951 |
| NCI-H2170 | 0.31 | 0.337 | 0.361 | 0.292 | 0.319 | 1.02 | 0.778 | 0.783 | 0.77 | 0.665 | 1.05 | 0.981 | 0.975 | 1.03 | 1.02 | 0.65 | 0.632 | 0.668 | 0.641 | 0.636 |
